Experimental data reported in patent US11149018B2, “Substituted N-arylethyl-2-aminoquinoline-4-carboxamides and use thereof” (Bayer Aktiengesellschaft, priority 2017, dated 2021).

Assays:
[1] = test system: occlusion of the cerebral artery; conditions: treatment with the FP antagonist after occlusion of the cerebral artery; cited from earlier work
[2] = target: FP receptor (Homo sapiens (Human), UniProt P43088); conditions: least selective of the prostanoid receptors; cited from earlier work
[3] = test system: C57BL/6J mice with CCl4-induced hepatic fibrosis; assay: Carbon tetrachloride (CCl4)-induced hepatic fibrosis in mice; format: in vivo, mouse
Protocol: B-21. Carbon Tetrachloride (CCl4)-Induced Hepatic Fibrosis in Mice
Sixty C57BL/6J mice (Charles River, male, 8 weeks old) were randomized and divided equally into 4 groups (15 mice per group). Group 1 served as the untreated healthy control group, whereas groups 2-4 served as mice suffering from hepatic fibrosis. Hepatic fibrosis was induced by intraperitoneal injection of 50 μl CCl4/olive oil suspension (CCl4+olive oil, 1+9 v/v) three times per week (Monday, Wednesday and Friday) over the entire study period. […] The CCl4-treated mice of group 4 served as group treated with a compound of the formula (I). The oral treatment of group 3 with the vehicle solution and of group 4 with a compound of the formula (I) started on day 1 and was continued twice daily (in the morning and evening) over the complete study period of two weeks. At the end of the study, all animals were sacrificed under anaesthetic, and the livers were removed fixed in 4% buffered formaldehyde solution for the subsequent histological processing and analysis. For this purpose, liver samples for all animals were embedded in paraffin and 3 μm-thick paraffin sections were produced. […] The sections were scanned with 20× enlargement and a light intensity of 4.8 V. The images thus produced were then converted to JPG format, and the red-stained area was quantified by means of ImageJ software (National Institute of Health, USA). […]

[4] = test system: C57Bl6J mice with unilateral ureteral obstruction; assay: Unilateral ureteral obstruction (UUO) in mice (renal fibrosis); format: in vivo, mouse; conditions: 10 days after UUO, mean ± SD, n=10; for SR/FG positive area [%]: SiriusRed/FastGreen collagen staining of kidney; for αSMA positive area [%]: immunohistochemistry of kidney; for Gene expression CTGF / Gene expression Col1α1 / Gene expression Col3α1 / Gene expression Col4α1 / Gene expression IL1-β / Gene expression IL-6 / Gene expression KC / Gene expression MCP-1 / Gene expression TGF-β / Gene expression αSMA: kidney, % of placebo group (=100%)
Description: B-22. Animal Model of Unilateral Ureteral Obstruction (UUO) in Mice (Renal Fibrosis) Unilateral ureteral obstruction in mice and rats is a widely used animal model for interstitial renal fibrosis (Chevalier et al., Kidney Int. 2009, 75, 1145-1152). Permanent occlusion of the ureter leads, as a result of the sustained accumulation of the urine, to increased inflammatory cell infiltration into the interstitium, to tubular cell death and to irreversible loss of the renal parenchyma. After 5 to 7 days, owing to the elevated deposition of extracellular matrix proteins, interstitial fibrosis arises. Adult male […] mice (Charles River Laboratories, Sulzfeld, Germany) having a weight of 20-22 g were anaesthetized with isoflurane, then, after opening up the abdominal cavity, a ureter was ligated and severed beneath the ligature. In the sham-operated control mice (SHAM), the abdominal cavity was merely opened up, but the ureter was not ligated. […] 10 days after the UUO, the animals were anaesthetized and sacrificed by exsanguination. Thereafter, the kidneys were removed and renal fibrosis was assessed on the basis of the expression of pro-inflammatory and pro-fibrotic markers, and a histological assessment of the renal tissue.

[5] = test system: C57Bl6J mice with DQ12 silica-induced pulmonary fibrosis; assay: Silica-induced pulmonary fibrosis in mice, therapeutic chronic 30-day study; format: in vivo, mouse; conditions: day 10-30, mean ± SEM
Protocol: B-23. Silica-Induced Pulmonary Fibrosis in Mice: Therapeutic Chronic 30-Day Study with FP Antagonists
Adult female C57Bl6J mice (Charles River Laboratories, Sulzfeld, Germany) having a weight of 18-20 g were anaesthetized in a chamber with isoflurane (3% v/v) and treated intratracheally with 2.5 mg of crystalline DQ12 silica dissolved in 70 μL of sterile phosphate-buffered saline. Untreated control mice received the same volume of phosphate-buffered saline. […] 30 days after the installation of silica, the animals were anaesthetized with an intraperitoneal injection of ketamine/medetomidine (50 mg/kg and 0.33 mg/kg) combined with a subcutaneous injection of Temgesic (0.06 mg/kg) and sacrifice by exsanguination. Thereafter, the trachea was cannulated, and the animals' lungs were lavaged three times with 0.5 ml of ice-cold phosphate-buffered saline. Thereafter, the lungs were removed, weighed and shock-frozen in dry ice. […] The data are mean values±SEM of 8-12 animals per group. The statistical analysis was conducted with the unpaired Student's t test. P values<0.05 were considered to be significant.

Chain of FP receptor (P43088 whole entry): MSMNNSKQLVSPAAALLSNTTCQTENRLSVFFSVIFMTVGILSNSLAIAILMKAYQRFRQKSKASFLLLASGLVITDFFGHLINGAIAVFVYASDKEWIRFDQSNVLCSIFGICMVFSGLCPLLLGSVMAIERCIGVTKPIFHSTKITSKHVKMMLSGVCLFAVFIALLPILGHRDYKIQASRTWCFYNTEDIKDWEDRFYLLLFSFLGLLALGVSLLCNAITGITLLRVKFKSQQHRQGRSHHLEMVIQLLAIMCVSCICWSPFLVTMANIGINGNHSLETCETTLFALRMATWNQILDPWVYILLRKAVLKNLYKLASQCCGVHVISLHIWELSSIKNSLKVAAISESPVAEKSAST

SMILES: O=C(O)CCC/C=C\C[C@@H]1[C@@H](/C=C/[C@H](O)C2Cc3ccccc3C2)[C@@H](F)C[C@@H]1O [AL-8810]
- neuroprotective effect [1]: significant neuroprotective effects

SMILES: CCCCC[C@H](O)/C=C/[C@H]1C(=O)C[C@H](O)[C@@H]1C/C=C\CCCC(=O)O [PGD2, prostaglandin D2]
- binding affinity to the FP receptor [2]: nanomolar affinities

SMILES: CCCCC[C@H](O)/C=C/[C@H]1[C@H](O)CC(=O)[C@@H]1C/C=C\CCCC(=O)O [PGE2, prostaglandin E2]
- binding affinity to the FP receptor [2]: nanomolar affinities

SMILES: Cc1c(N2CCCC2)nc2ccc(Br)cc2c1C(=O)NCC(CCC(=O)O)c1ccccc1Cl.Cl (single isomer, unassigned; (+)) [Example 284, (+)-5-({[6-Bromo-3-methyl-2-(pyrrolidin-1-yl)quinolin-4-yl]carbonyl}amino)-4-(2-chlorophenyl)pentanoic acid hydrochloride]
- Progression of fibrosis (result in words) ([3]; 2-week study in mice with hepatic fibrosis, p<0.01, two-way ANOVA with Dunnett post-hoc test): significant reduction in the progression of fibrosis
- Sirius red [% liver area] ([3]; CCl4 + 100 mg/kg, oral twice daily, 2 weeks, mean ± SD): 3.51 ± 0.65 % liver area
- SR/FG positive area [%] ([4]; 30 mg/kg): 38.74 ± 9.12%
- αSMA positive area [%] ([4]; 30 mg/kg): 25.19 ± 3.23%
- Gene expression CTGF ([4]; 30 mg/kg): 105.67 ± 52.33%
- Gene expression Col1α1 ([4]; 30 mg/kg): 76.70 ± 36.22%
- Gene expression Col3α1 ([4]; 30 mg/kg): 103.74 ± 37.60%
- Gene expression Col4α1 ([4]; 30 mg/kg): 71.15 ± 20.20%
- Gene expression IL1-β ([4]; 30 mg/kg): 81.91 ± 31.93%
- Gene expression IL-6 ([4]; 30 mg/kg): 207.04 ± 389.13%
- Gene expression KC ([4]; 30 mg/kg): 65.02 ± 15.98%
- Gene expression MCP-1 ([4]; 30 mg/kg): 93.98 ± 26.32%
- Gene expression TGF-β ([4]; 30 mg/kg): 67.57 ± 32.67%
- Gene expression αSMA ([4]; 30 mg/kg): 72.97 ± 39.94%
- SR/FG positive area [%] ([4]; 60 mg/kg): 34.66 ± 7.59%
- αSMA positive area [%] ([4]; 60 mg/kg): 22.28 ± 4.04%
- Gene expression CTGF ([4]; 60 mg/kg): 102.07 ± 26.99%
- Gene expression Col1α1 ([4]; 60 mg/kg): 38.90 ± 13.11%
- Gene expression Col3α1 ([4]; 60 mg/kg): 126.15 ± 46.51%
- Gene expression Col4α1 ([4]; 60 mg/kg): 45.97 ± 8.44%
- Gene expression IL1-β ([4]; 60 mg/kg): 112.05 ± 71.38%
- Gene expression IL-6 ([4]; 60 mg/kg): 494.83 ± 850.76%
- Gene expression KC ([4]; 60 mg/kg): 50.69 ± 22.02%
- Gene expression MCP-1 ([4]; 60 mg/kg): 117.41 ± 38.15%
- Gene expression TGF-β ([4]; 60 mg/kg): 31.79 ± 9.06%
- Gene expression αSMA ([4]; 60 mg/kg): 51.72 ± 21.33%
- Hydroxyproline [ng/lung] ([5]; Silica + 10 mg/kg po bid): 2341 ± 54.99 (n = 12) ng/lung
- Hydroxyproline [ng/lung] ([5]; Silica + 30 mg/kg po bid): 2185 ± 86.79 (n = 12) ng/lung
